The assay deals with RSV strain A2. Briefly: RSV antiviral cytoprotection assay in Hep2 cells (96-well and 384-well format, Cell TiterGlo read-out). It counts as cell-based, Respiratory Syncytial Virus (RSV). The conditions noted are these: human respiratory syncytial virus; for inhibition at 0.5 µM: HEp-2, 0.5 uM; for inhibition at 0.5 µM / inhibition at 1 µM: RSV-induced cytopathic effect in Hep2 cells, calculated from fitted dose response curve, normalized to 0% and 100%; for EC50: HEp-2, RSV-induced cytopathic effects, Hep2 cells, class symbols; for inhibition at 1 µM: HEp-2, 1 uM.

Results on 42 compounds are retold here after US9238039B2, “Pyrazolo[1,5-A]pyrimidines for antiviral treatment” (Gilead Sciences, Inc., priority 2010, dated 2016).

Structures are written as SMILES.

What is called inhibition is the percentage by which the read-out fell short of the control. The term EC50 denotes the concentration giving half of the maximal effect. `CS(=O)(=O)Nc1ccc(Cl)cc1C(=O)N1CCCC[C@H]1c1cc2nc(N3CC(O)C3)ccn2n1` [Compound 49]: the inhibition at 0.5 µM is 98% and the EC50 is 0.1 to 100 nM.
Consider `CC(=O)Nc1ccc(F)cc1C(=O)N1CCCC[C@H]1c1cc2[nH]c(C)c(C)c(=O)n2n1` [Compound 16], for which the inhibition at 0.5 µM was 89%, the inhibition at 1 µM was 97% and the EC50 lay in the range of 0.1 to 100 nM.
As to `Cc1cn2nc([C@@H]3CCCCN3C(=O)c3ncc(F)cc3F)cc2nc1N1CC[C@H](N)C1` [Compound 310], the inhibition at 0.5 µM was 100% and the EC50 lay within 0.1 to 100 nM.
In the case of `Cc1cc(C(=O)N2CCCC[C@H]2c2cc3nc(N4CC[C@H](N)C4)c(C)cn3n2)c(Cl)nn1` [Compound 341], the inhibition at 0.5 µM was 75% and the EC50 was in the range of 0.1 to 100 nM.
Turning to `CS(=O)(=O)Nc1ccc(Cl)cc1C(=O)N1CCCC[C@H]1c1cc2nc(N3CC(O)C3)cc(N3CCN(CC(F)(F)F)CC3)n2n1` [Compound 83], the inhibition at 0.5 µM was 98% and the EC50 fell in the range of 0.1 to 100 nM.
As for `Cc1cc(C(=O)N2CCCC[C@H]2c2cc3nc(N4CC[C@H](N)C4)c(C)cn3n2)no1` [Compound 264], the inhibition at 0.5 µM is 53% and the EC50 lay in the range of 101 to 1000 nM.
For `CS(=O)(=O)Nc1ccc(Cl)cc1C(=O)N1CCCC[C@H]1c1cc2nc(N3CCC3)cc(N3C[C@H]4C[C@@H]3CN4)n2n1` [Compound 147], the inhibition at 0.5 µM is 98% and the EC50 lay within 0.1 to 100 nM.
For `Cc1cn2nc([C@@H]3CCCCN3C(=O)c3ccc(F)c(F)c3O)cc2nc1N1CC[C@H](N)C1` [Compound 346], the inhibition at 0.5 µM was 100% and the EC50 was in the range of 0.1 to 100 nM.
Take `Cc1cc(C(=O)N2CCCC[C@H]2c2cc3nc(N4CC[C@H](N)C4)c(C)cn3n2)on1` [Compound 266]: the inhibition at 0.5 µM was 100% and the EC50 fell in the range of 0.1 to 100 nM.
For `Cc1cn2nc([C@@H]3CCCCN3C(=O)c3cnco3)cc2nc1N1CC[C@H](N)C1` [Compound 259], the inhibition at 0.5 µM is 28% and the EC50 fell in the range of 1000 to 10000 nM.
Turning to `Cc1cn2nc([C@@H]3CCCCN3C(=O)c3cc(Cl)ccc3NS(C)(=O)=O)cc2nc1N1CCC[C@H]1CO` [Compound 210], the inhibition at 0.5 µM is 81% and the EC50 was 101 to 1000 nM.
For the compound `CS(=O)(=O)Nc1ccc(Cl)cc1C(=O)N1CCCC[C@H]1c1cc2nc(N3CCC3)cc(N3CCCCN3)n2n1` [Compound 252], the inhibition at 0.5 µM is 92% and the EC50 is 0.1 to 100 nM.
Turning to `Cc1cn2nc(C3CCCCCN3C(=O)c3cc(Cl)ccc3NS(C)(=O)=O)cc2nc1N1CC(O)C1` (stereo not drawn) [Compound 174], the inhibition at 0.5 µM was 100% and the EC50 is 0.1 to 100 nM.
The corresponding values for `Cc1cc(C2CC2)nc2cc([C@@H]3CCCCN3C(=O)c3cc(Br)ccc3NS(C)(=O)=O)nn12` [Compound 122] are 99% and 0.1 to 100 nM.
Consider `Cc1cn2nc([C@@H]3CCCCN3C(=O)c3ccccc3F)cc2nc1N1CC[C@H](N)C1` [Compound 277], for which the inhibition at 0.5 µM was 98% and the EC50 lay within 0.1 to 100 nM.
For the compound `Cc1cn2nc([C@@H]3CCCCN3C(=O)c3cccc4c3ccn4C)cc2nc1N1CC[C@H](N)C1` [Compound 349], the inhibition at 0.5 µM is 100% and the EC50 lay within 0.1 to 100 nM.
Take `CS(=O)(=O)Nc1ccc(Cl)cc1C(=O)N1CCCC[C@H]1c1cc2nc(N3CC(O)C3)cc(N3CCC(O)CC3)n2n1` [Compound 81]: the inhibition at 0.5 µM is 100% and the EC50 was in the range of 0.1 to 100 nM.
Regarding `CCC(=O)Nc1nonc1C(=O)N1CCCC[C@H]1c1cc2nc(N3CC[C@H](N)C3)c(C)cn2n1` [Compound 372], the inhibition at 0.5 µM is 38% and the EC50 lay within 101 to 1000 nM.
With `Cc1cc(C(=O)N2CCCC[C@H]2c2cc3nc(N4CC[C@H](N)C4)c(C)cn3n2)[nH]n1` [Compound 262], the inhibition at 0.5 µM is 100% and the EC50 is 0.1 to 100 nM.
Consider `CS(=O)(=O)Nc1ccc(Cl)cc1C(=O)N1CCCC[C@H]1c1cc2nc(N3CCC3)cc(N3CCOCC3)n2n1` [Compound 67], for which the inhibition at 0.5 µM was 100% and the EC50 is 0.1 to 100 nM.
For `CS(=O)(=O)Nc1ccc(Cl)cc1C(=O)N1CCCC[C@H]1c1cc2nc(N3CCC3)cc(N3CCC(O)CC3)n2n1` [Compound 44], the inhibition at 0.5 µM is 100% and the EC50 lay in the range of 0.1 to 100 nM.
Turning to `CS(=O)(=O)Nc1ccc(Cl)cc1C(=O)N1CCCC[C@H]1c1cc2nc(N3CCC3)cc(N3CCC(O)C3)n2n1` (stereo partly drawn) [Compound 57], the inhibition at 0.5 µM was 100% and the EC50 is 0.1 to 100 nM.
`Cc1cn2nc([C@@H]3CCCCN3C(=O)c3cccc(F)c3F)cc2nc1N1CC[C@H](N)C1` [Compound 307]: the inhibition at 0.5 µM is 100% and the EC50 lay within 0.1 to 100 nM.
In the case of `Cc1ccc(NS(C)(=O)=O)c(C(=O)N2CCCC[C@H]2c2cc3nc(C4CC4)cc(N4CCC4)n3n2)c1` [Compound 65], the inhibition at 0.5 µM was 100% and the EC50 was 0.1 to 100 nM.
On to `Cc1cn2nc([C@@H]3CCCCN3C(=O)c3cccc4ccccc34)cc2nc1N1CC[C@H](N)C1` [Compound 338], for which the inhibition at 0.5 µM was 72% and the EC50 fell in the range of 101 to 1000 nM.
With `Cc1cn2nc([C@@H]3CCCCN3C(=O)c3ccc4ccn(C)c4c3)cc2nc1N1CC[C@H](N)C1` [Compound 350], the inhibition at 0.5 µM was 83.6% and the EC50 fell in the range of 101 to 1000 nM.
Taken in the same sequence, the figures for `CCc1ocnc1C(=O)N1CCCC[C@H]1c1cc2nc(N3CC[C@H](N)C3)c(C)cn2n1` [Compound 284] were 97.8% and 0.1 to 100 nM.
The corresponding values for `Cc1cn2nc([C@@H]3CCCCN3C(=O)c3cc(Cl)ccc3NS(C)(=O)=O)cc2nc1N1CCCC(O)C1` (stereo partly drawn) [Compound 217] are 89% and 101 to 1000 nM.
Regarding `Cc1[nH]c2cc([C@@H]3CCCCN3C(=O)c3cc(F)ccc3NS(C)(=O)=O)nn2c(=O)c1F` [Compound 19], the inhibition at 0.5 µM is 67%, the inhibition at 1 µM is 84% and the EC50 was 101 to 1000 nM.
Regarding `Cc1cc(N2CCC2)nc2cc([C@@H]3CCCCN3C(=O)c3cc(Cl)ccc3NS(C)(=O)=O)nn12` [Compound 42], the inhibition at 0.5 µM was 100% and the EC50 fell in the range of 0.1 to 100 nM.
On to `Cc1cn2nc([C@@H]3CCCCN3C(=O)c3nn(C)c4ccccc34)cc2nc1N1CC[C@H](N)C1` [Compound 357], for which the inhibition at 0.5 µM was 82% and the EC50 lay within 101 to 1000 nM.
The corresponding values for `Cc1cn2nc([C@@H]3CCCCN3C(=O)c3cccn4c(C)nnc34)cc2nc1N1CC[C@H](N)C1` [Compound 358] are 100% and 0.1 to 100 nM.
`CS(=O)(=O)Nc1ccc(Cl)cc1C(=O)N1CCCC[C@H]1c1cc2nc(N3CCC3)cc(N3CCNCC3)n2n1` [Compound 45]: the inhibition at 0.5 µM is 100% and the EC50 fell in the range of 0.1 to 100 nM.
In the case of `CS(=O)(=O)Nc1ccc(Cl)cc1C(=O)N1CCCC[C@H]1c1cc2nc(N3CC(O)C3)cc(N3CCOCC3)n2n1` [Compound 69], the inhibition at 0.5 µM is 100% and the EC50 was 0.1 to 100 nM.
Taken in the same sequence, the figures for `Cc1cn2nc([C@@H]3CCCCN3C(=O)c3cc(Cl)ccc3NS(C)(=O)=O)cc2nc1N1CC(OC(=O)[C@@H](N)C(C)C)C1` [Compound 187] were 100% and 0.1 to 100 nM.
On to `Cc1cn2nc([C@@H]3CCCCN3C(=O)c3cc(Cl)ccc3NS(C)(=O)=O)cc2nc1N1CC(C)C1` [Compound 129], for which the inhibition at 0.5 µM was 100% and the EC50 was 0.1 to 100 nM.
As for `Cc1[nH]c2cc([C@@H]3COCCN3C(=O)c3ccccc3NS(C)(=O)=O)nn2c(=O)c1C` [Compound 20, N-{2-[3-(5,6-Dimethyl-7-oxo-4,7-dihydro-pyrazolo[1,5-a]pyrimidin-2-yl)-morpholine-4-carbonyl]-phenyl}-methanesulfonamide], the inhibition at 0.5 µM is 7%, the inhibition at 1 µM was 53% and the EC50 was 1000 to 10000 nM.
For the compound `Cc1cn2nc([C@@H]3CCCCN3C(=O)c3cncc(Cl)c3)cc2nc1N1CC[C@H](N)C1` [Compound 306], the inhibition at 0.5 µM is 100% and the EC50 lay within 0.1 to 100 nM.
Taken in the same sequence, the figures for `Cc1cn2nc([C@@H]3CCCCN3C(=O)c3cccn3C)cc2nc1N1CC[C@H](N)C1` [Compound 261] were 81% and 101 to 1000 nM.
Taken in the same sequence, the figures for `COc1cccc(C(=O)N2CCCC[C@H]2c2cc3nc(N4CC[C@H](N)C4)c(C)cn3n2)c1` [Compound 295] were 97% and 0.1 to 100 nM.
The corresponding values for `Cc1cn2nc([C@@H]3CCCCN3C(=O)c3cc(Cl)ccc3NS(C)(=O)=O)cc2nc1-c1ccccc1` [Compound 134] are 98% and 0.1 to 100 nM.
Regarding `CC(=O)Nc1ccc(Cl)cc1C(=O)N1CCCC[C@H]1c1cc2nc(N3CC(O)C3)c(C)cn2n1` [Compound 224], the inhibition at 0.5 µM is 100% and the EC50 fell in the range of 0.1 to 100 nM.
